Series [1] is described as follows: Pharmacokinetic evaluation in SD rats. Format: in vivo. Conditions: 50 mg/kg; for Cmax (maximum blood concentration): n=4. The method, then:
The 2 methanesulfonic acid salt, prepared in Example 1, and the 1 methanesulfonic acid salt, prepared in Comparative Example 1, of N-Hydroxy-4-{5-[4-(5-isopropyl-2-methyl-1,3-thiazol-4-yl)phenoxy]pentoxy} benzamidine, and the N-Hydroxy-4-{5-[4-(5-isopropyl-2-methyl-1,3-thiazol-4-yl)phenoxy]pentoxy} benzamidine, prepared in Reference Preparation Example 1, were individually administered to SD rats in a dosage of 50 mg/kg. At given time points (0, 0.5, 1, 1.5, 2, 3, 5 and 8 hrs), rats were mildly anesthetized with diethyl ether, and blood samples were collected from the orbital venous plexus and stored at −20° C. until concentration analysis. The plasma samples were mixed with an equal volume of an internal standard substance solution (prepared by dissolving betamethasone in acetonitrile to give a final concentration of 30 μg/ml) with agitation for. 1 min, and was centrifuged at 12,000 rpm for 10 min. Active components of the plasma samples were analyzed by HPLC (Model: Waters Module 1). From the obtained data, pharmacokinetic parameters (maximum blood concentration (Cmax) and area under the blood concentration-time curve (AUC) were calculated by noncompartment analysis using the WinNonlin program (Version 1.0, Scientific Consulting Inc., USA). The results are given in Table 5, below.

Series [2] in a line: Solubility in various solvents at room temperature. The format is physicochemical. From the text:
The 2 methanesulfonic acid salt, prepared in Example 1, and the 1 methanesulfonic acid salt, prepared in Comparative Example 1, of N-Hydroxy-4-{5-[4-(5-isopropyl-2-methyl-1,3-thiazol-4-yl)phenoxy]pentoxy} benzamidine, and the N-Hydroxy-4-{5-[4-(5-isopropyl-2-methyl-1,3-thiazol-4-yl)phenoxy]pentoxy} benzamidine, prepared in Reference Preparation Example 1, were examined for solubility (μg/mL) in various solvents at room temperature.

Series [3] can be described thus: Stability under accelerated conditions (40±2° C./75±5% RH), HPLC content. Format: physicochemical. The conditions noted are these: for Content (%): 40±2° C./75±5% RH, cap-opened vial, HPLC area percentage. How it is done:
The 2 methanesulfonic acid salt of N-Hydroxy-4-{5-[4-(5-isopropyl-2-methyl-1,3-thiazol-4-yl)phenoxy]pentoxy} benzamidine, prepared in Example 1, was placed into a transparent glass vial, and stored at a cap-opened state under accelerated conditions (40±2° C./75±5% RH) for a period of two weeks. Thereafter, the sample was analyzed by HPLC (Waters Module 1). The analysis was performed using a column packed with an octadecyl-silylated silica gel (Shiseido CAPCELL PAK C18, UG 120, Particle size 5 μm) under conditions: UV detection: 256 nm, injection volume: 10 μl, mobile-phase flow rate: 1.5 mL/min. The amount of the compound was calculated as an area percentage.

Series [4] deals with allergic inflammatory diseases (asthma). The conditions noted are these: asthmatic mice, cited from earlier work.
In a further series the test system is bone fractures. The conditions noted are these: rats, compared to control not treated; cited from earlier work.
The mark [5] stands for this setting: distilled water, room temperature.
The mark [6] stands for this setting: dose-dependent, compared to control group.

The structures appear in SMILES notation. ≈ marks a conversion by molar mass, not a printed value. Where a name gives a salt, the structure may show the parent alone. Read-outs that look alike come from different tables or passages of the source. A value given as a limit tells only on which side of the number the result lay.

For the molecule `CS(=O)(=O)O.Cc1nc(-c2ccc(OCCCCCOc3ccc(C(=N)NO)cc3)cc2)c(C(C)C)s1` [1 methanesulfonic acid salt, N-Hydroxy-4-{5-[4-(5-isopropyl-2-methyl-1,3-thiazol-4-yl)phenoxy]pentoxy} benzamidine 1 methanesulfonic acid salt], the “Cmax (maximum blood concentration)” value in series [1] worked out at 1400 ± 110 ng/mL. The same molecule displayed an AUC (area under the blood concentration-time curve) in series [1] (n=4, 0-8 hrs) of 7010 ± 600 ng·h/mL. Also, the solubility in series [2] (setting [5]) was 414.34 µg/mL; in series [2] (pH 1.2, room temperature) it was 1,092.98 μg/mL; in series [2] (pH 4.0, room temperature), 0.99 µg/mL.
As to `Cc1nc(-c2ccc(OCCCCCOc3ccc(C(=N)NO)cc3)cc2)c(C(C)C)s1` [2 methanesulfonic acid salt, N-Hydroxy-4-{5-[4-(5-isopropyl-2-methyl-1,3-thiazol-4-yl)phenoxy]pentoxy} benzamidine 2 methansulfonic acid salt], in series [1], the “Cmax (maximum blood concentration)” value came to 1670 ± 320 ng/mL. The AUC (area under the blood concentration-time curve) in series [1] (n=4, 0-8 hrs) was 10300 ± 800 ng·h/mL. Also, the bioavailability in series [1] (SD, rat, plasma, read-out: bioavailability relative to the 1 methanesulfonic acid salt) is over 46%. Besides, in series [3] (accelerated test at 40° C., two weeks), the “change in content in accelerated test” value is reported as “no change”. Moreover, the “Content (%)” value in series [3] (after 1 week) is reported as 99.87%; in series [3] (after 2 weeks), 99.86%; in series [3] (after 2 days) it was 99.86%; in series [3] (early stage), 99.85%. For the same molecule, the solubility was 3,535.33 μg/mL in series [2] (setting [5]); 1,686.71 μg/mL in series [2] (pH 1.2, room temperature); 3 µg/mL in series [2] (solvent of pH 4.0 (composition not named), pH 4, aqueous buffer, pH 4.0, room temperature, read-out: solubility). The “solubility fold higher than the 1 methanesulfonic acid salt” value in series [2] (pH 4.0) is listed as “about 3 fold”.
`Cc1nc(-c2ccc(OCCCCCOc3ccc(C(=N)NO)cc3)cc2)c(C(C)C)s1` [Free base, N-Hydroxy-4-{5-[4-(5-isopropyl-2-methyl-1,3-thiazol-4-yl)phenoxy]pentoxy} benzamidine]: the AUC in series [1] (SD, rat, plasma, n=4, 0-8 hrs, read-out: AUC (area under the blood concentration-time curve)) is 5310 ± 490 ng·h/mL. Moreover, the Cmax in series [1] (SD, rat, plasma, n=4, read-out: Cmax (maximum blood concentration)) turned out to be 1090 ± 170 ng/mL. Also, the alveolar area result in series [4] (compared to control group) is “significantly increased”. Also, in series [4] (setting [6]), the number of eosinophils entry was “significantly decreased”, the “number of eosinophils in bronchoalveolar lavage fluid” value is given as “significantly decreased” and the “total number of leukocytes” value was “significantly decreased”. Further, the “increase in lung weight” value in series [4] (oral administration for 18 days, compared to control given sterile distilled water) was “suppressed”. In series [2] (setting [5]), this molecule returned a solubility of 3.48 µg/mL (≈ 7.67 µM). Besides, the solubility in series [2] (solvent of pH 1.2 (composition not named), pH 1.2, simulated gastric fluid, pH 1.2, room temperature, read-out: solubility) was 951 µg/mL (≈ 2100 µM). In addition, in the series with bone fractures, the “bone mineral content of callus” value is on record as “significantly enhanced”; the bone tissue density result is “significantly increased”; the callus volume is on record as “significantly reduced”; the “content of connective and soft tissues in the callus tissue” value was “significantly reduced”. Moreover, the “mechanical strength of callus” value in the series with bone fractures is recorded as “significantly enhanced”.

Broadly, the solubility is the dissolved amount per volume that the medium holds. The term bioavailability denotes the share of a dose that reaches the circulation, judged against a reference dose that is usually intravenous.

(Values after patent US20090176846A1, “N-hydroxy-4- {5- [4- (5-isopropyl-2-methyl-1, 3-thiazol-4-yl) phenoxy] pentoxy} benzamidine 2 methanesulfonic acid salt” (priority 2005, published 2009).)
